In patent US20260183393A1, “IMMUNOSUPPRESSANT-RESISTANT MODIFIED ALLOGENEIC MODIFIED IMMUNE CELLS AND METHODS FOR USE THEREOF” (Beam Therapeutics Inc., priority 2023, published 2026):

Key:
[1] = test system: mTOR and downstream substrates S6Rp and 4E-BP1; assay: Phosphorylation of mTOR, S6 and 4EBP1 in malignant B cell lines; type: cell-based, human; conditions: JeKo-1, Raji and Nalm6 cells treated with DMSO or RPM
Procedure: (§1) FIGS. 26A to 26E provide histograms and plots showing malignant B cell lines were sensitive to Rapamycin treatment in vitro. FIG. 26A provides histograms showing geometric median fluorescent intensity (MFI) of phosphorylated mTOR (pS2448), S6 (pS235/[…]) and 4EBP1 (pT36/T45) in JeKo-1, Raji and Nalm6 cell lines, as well as primary human monocytes and bulk lymphocytes. FIGS. 26B to 26D relate to an experiment where JeKo-1, Raji and Nalm6 cells were treated with DMSO or Rapamycin (RPM) and then analyzed for phosphorylation level of mTOR (FIG. 26B), S6 (FIG. 26C) and 4EBP1 (FIG. 26D). FIG. 26E provides plots showing JeKo-1, Raji and Nalm6 cell growth kinetics after treatment with DMSO or RPM at different concentrations. Symbols indicate mean and error bars show ±s.e.m.
Live cells were discriminated by staining negative for Fixable Viability Dye eFluor780 (eBioscience). CountBright Counting Beads were used according to the manufacturer's instructions to determine concentration of immune cells from whole blood. Intracellular cytokines were detected using Cell Fixation & Cell Permeability Kit (Invitrogen) following manufacturer's protocol with anti-human antibodies from Biolegend: TNF-a (MAb11), IFN-g (4S.B3), IL-2 (MQH-17H12) and GM-CSF (BVD2-21C11). […] Data was analyzed using FlowJo software v.10 (Tree Star).

[2] = test system: JeKo-1; assay: Cell growth kinetics with rapamycin, JeKo-1; type: cell-based, human; conditions: RPM at different concentrations
Procedure: as §1

[3] = test system: Raji; assay: Cell growth kinetics with rapamycin, Raji; type: cell-based, human; conditions: RPM at different concentrations
Procedure: as §1

[4] = test system: CD19^+ B cells; assay: B cell aplasia and 19CAR-T cell persistence in HIS mice; type: in vivo, huCD34-NCG mice; conditions: TAC 10 mg kg^−1 daily; 10 days post-T cell infusion
Text: FIGS. 19B and 19C provide a bar graph of cell concentration (FIG. 19B) and flow cytometry contour plots (FIG. 19C) for peripheral CD19^+ B cells 6 days post-T cell infusion from mice in Groups 1-4. FIGS. 19D and 19E provide bar graphs showing total CD19^+ B cells from individual mouse splenic (FIG. 19D) and bone marrow (FIG. 19E) tissue 10 days post-T cell infusion in Groups 1-4. FIG. 19F provides a bar graph showing geometric median fluorescent intensity (MFI) of CD19 expression on residual peripheral CD22^+ B cells 6 days post-T cell infusion from mice in Groups 1-4. FIG. 19G provides a bar graph showing concentration of peripheral CD22^+CD19^dim B cells 6 days post-T cell infusion from mice in Groups 1-4. […] Statistical significance was calculated by Wilcoxon rank sum test (FIGS. 19B, 19D, and 19E) and Kruskall-Wallace test with Dunn's test for multiple comparisons (FIGS. 19F, 19G, 19I, and 19J).
For the studies described in FIGS. 19A to 19J, huCD34-NCG mice were used in Cohort #6 (n=16), Cohort #7 (n=12), Cohort #8 (n=24), and Cohort #9 (n=12) and were evenly distributed into 4 groups via matched distribution based on degree of human T cell engraftment using StudyLog. […] Endogenous B cell aplasia and persistence of 19CAR-T cells was monitored at 7- and 11-days post-drug treatment via blood draw from the submandibular vein and tissue collection at necropsy.

| SMILES | protein phosphorylation of mTOR and downstream substrates S6Rp and 4E-BP1 [1] | in vitro proliferation [2] | in vitro proliferation [3] | allorejection of HLA-I^+ 19CAR-T cells in peripheral blood and spleen [4] |
| --- | --- | --- | --- | --- |
| CO[C@H]1C[C@@H]2CC[C@@H](C)[C@@](O)(O2)C(=O)C(=O)N2CCCC[C@H]2C(=O)O[C@H]([C@H](C)C[C@@H]2CC[C@@H](O)[C@H](OC)C2)CC(=O)[C@H](C)/C=C(\C)[C@@H](O)[C@@H](OC)C(=O)[C@H](C)C[C@H](C)/C=C/C=C/C=C/1C [rapamycin, Rapamycin] | attenuated protein phosphorylation | inhibited in vitro proliferation | inhibited in vitro proliferation | – |
| C=CC[C@@H]1/C=C(\C)C[C@H](C)C[C@H](OC)[C@H]2O[C@@](O)(C(=O)C(=O)N3CCCC[C@H]3C(=O)O[C@H](/C(C)=C/[C@@H]3CC[C@@H](O)[C@H](OC)C3)[C@H](C)[C@@H](O)CC1=O)[C@H](C)C[C@@H]2OC [tacrolimus, Tacrolimus] | – | – | – | protected HLA-I^+ 19CAR-T cells |
